# Source: publication PMC3605653 (The Journal of Biological Chemistry, 2013)
# Legend:
# [1] = target: T1, ELIC (Erwinia chrysanthemi ligand-gated ion channel) (Dickeya chrysanthemi, UniProt P0C7B7); experiment: two-electrode voltage clamp, Xenopus oocytes; type: cell-based
# T1 sequence (P0C7B7 1-321): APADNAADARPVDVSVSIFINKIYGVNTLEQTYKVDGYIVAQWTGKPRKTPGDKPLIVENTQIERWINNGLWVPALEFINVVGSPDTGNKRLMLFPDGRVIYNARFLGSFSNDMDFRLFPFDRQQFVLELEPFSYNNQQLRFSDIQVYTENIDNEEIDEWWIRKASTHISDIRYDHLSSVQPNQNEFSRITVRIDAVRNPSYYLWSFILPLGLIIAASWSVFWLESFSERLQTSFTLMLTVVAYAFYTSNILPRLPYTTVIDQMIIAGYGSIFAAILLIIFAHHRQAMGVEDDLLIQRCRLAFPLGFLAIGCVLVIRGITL
# [2] = target: T1, ELIC (Erwinia chrysanthemi ligand-gated ion channel); experiment: two-electrode voltage clamp, Xenopus oocytes; type: cell-based; conditions: agonist; pH 7.4, 18 °C, -60 mV; concentration used as EC20
# [3] = target: ELIC (Erwinia chrysanthemi ligand-gated ion channel) (Dickeya chrysanthemi, UniProt P0C7B7, L239S/W223A); experiment: cell-based; conditions: read-out: remaining EC20 current (%) at 200 μM
# [4] = target: ELIC (Erwinia chrysanthemi ligand-gated ion channel) (Dickeya chrysanthemi, UniProt P0C7B7, F273A/L239S); experiment: cell-based; conditions: read-out: remaining EC20 current (%) at 200 μM
Compound,IC50 [1] [µM],EC20 [2] [µM],remaining activity at 200 µM [3] [%],remaining activity at 200 µM [4] [%]
ClC(Cl)Cl [chloroform],162 ± 26,–,–,–
NCCCC(=O)O [GABA],–,3000,–,–
BrC(Br)Br [bromoform],125 ± 10,–,81 ± 6,78 ± 4
